17 molecules from patent publication US11555032B2, “Isoxazole derivatives as FXR agonists and methods of use thereof” (Enanta Pharmaceuticals, Inc., priority 2019, dated 2023) can be followed below.

A value given as a limit tells only on which side of the number the result lay.

The assay deals with T1, human FXR (NR1H4) (Homo sapiens, UniProt Q96RI1).
T1 construct: host or cells: CHO (Chinese hamster ovary) reporter cells
T1 sequence (Q96RI1 1-486): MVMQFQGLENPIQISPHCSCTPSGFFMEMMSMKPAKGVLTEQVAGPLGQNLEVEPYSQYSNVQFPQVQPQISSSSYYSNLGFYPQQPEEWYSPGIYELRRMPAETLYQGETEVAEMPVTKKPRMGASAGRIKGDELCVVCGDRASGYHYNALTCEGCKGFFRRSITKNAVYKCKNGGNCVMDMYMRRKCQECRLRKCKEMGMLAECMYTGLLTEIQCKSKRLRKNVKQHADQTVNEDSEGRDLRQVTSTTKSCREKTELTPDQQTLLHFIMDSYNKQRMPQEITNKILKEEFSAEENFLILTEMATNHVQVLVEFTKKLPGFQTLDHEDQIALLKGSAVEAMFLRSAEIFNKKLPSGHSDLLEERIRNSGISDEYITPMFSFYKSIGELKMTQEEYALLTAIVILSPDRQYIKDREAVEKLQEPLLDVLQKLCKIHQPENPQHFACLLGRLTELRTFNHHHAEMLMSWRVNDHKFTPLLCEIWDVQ
Put plainly: Human FXR (NRIH4) Assay, luciferase reporter. Format: cell-based. As to conditions: CHO reporter cells expressing human NR1H4, luciferase, 22 hours incubation. The source says:
Determination of a ligand mediated Gal4 promoter driven transactivation to quantify ligand binding mediated activation of FXR. FXR Reporter Assay kit purchased from Indigo Bioscience (Catalogue number: IB00601) to determine the potency and efficacy of compound developed by Enanta that can induce FXR activation. The principle application of this reporter assay system is to quantify functional activity of human FXR. The assay utilizes non-human mammalian cells, CHO (Chinese hamster ovary) cells engineered to express human NR1H4 protein (referred to as FXR). Reporter cells also incorporate the cDNA encoding beetle luciferase which catalyzes the substrates and yields photon emission. Luminescence intensity of the reaction is quantified using a plate-reading luminometer, Envision. Reporter Cells include the luciferase reporter gene functionally linked to an FXR responsive promoter. Thus, quantifying changes in luciferase expression in the treated reporter cells provides a sensitive surrogate measure of the changes in FXR activity. EC50 and efficacy (normalize to CDCA set as 100%) is determined by XLFit. The assay is according to the manufacturer's instructions. In brief, the assay was performed in white, 96 well plates using final volume of 100 ul containing cells with different doses of compounds. Retrieve Reporter Cells from −80° C. storage. Perform a rapid thaw of the frozen cells by transferring a 10 ml volume of 37° C. cell recovery medium into the tube of frozen cells. Recap the tube of Reporter Cells and immediately place it in a 37° C. water bath for 5-10 minutes. Retrieve the tube of Reporter Cell Suspension from the water bath. Sanitize the outside surface of the tube with a 70% alcohol swab, and then transfer it into the cell culture hood. Dispense 90 μl of cell suspension into each well of the 96-well Assay Plate. Transfer the plate into 37° C. incubator, allowing the cells adherent to the bottom of the well. Dilute compounds in Dilution Plate (DP), and administrate to cells at Assay Plate (AP). DMSO content of the samples was kept at 0.2%. Cells were incubated for additional 22 hours before luciferase activities were measured. Thirty minutes before intending to quantify FXR activity, remove Detection Substrate and Detection Buffer from the refrigerator and place them in a low-light area so that they may equilibrate to room temperature. Remove the plate's lid and discard all media contents by ejecting it into an appropriate waste container. Gently tap the inverted plate onto a clean absorbent paper towel to remove residual droplets. Cells will remain tightly adhered to well bottoms. Add 100 μl of luciferase detection reagent to each well of the assay plate. Allow the assay plate to rest at room temperature for at least 5 minutes following the addition of LDR. Set the instrument (Envision) to perform a single 5 second “plate shake” prior to reading the first assay well. Read time may be 0.5 second (500 mSec) per well. EC50 and Efficacy (normalize to CDCA set as 100%) is determined by XLFit.
The efficacy was normalized to CDCA set as 100%.

The molecule `CC(C)Oc1cc(C(=O)O)cc2sc(NC3[C@@H]4CC[C@H]3CC(OCc3c(-c5c(Cl)cccc5Cl)noc3C3CC3)C4)nc12` (stereo partly drawn) [Example 1, 2-(((1R,3r,5S,8s)-3-((5-cyclopropyl-3-(2,6-dichlorophenyl)isoxazol-4-yl)methoxy)bicyclo[3.2.1]octan-8-yl)amino)-4-isopropoxybenzo[d]thiazole-6-carboxylic acid] registered an EC50 of less than 25 nM.

With `CC(C)Oc1cc(C(=O)O)cc2sc(NC3C4CCC3CC(OCc3c(-c5c(Cl)cccc5Cl)noc3C3CC3)C4)nc12` [Example 2, 2-(((1R,3r,5S,8r)-3-((5-cyclopropyl-3-(2,6-dichlorophenyl)isoxazol-4-yl)methoxy)bicyclo[3.2.1]octan-8-yl)amino)-4-isopropoxybenzo[d]thiazole-6-carboxylic acid], the EC50 is less than 25 nM.

Consider `O=C(O)c1ccc2c(c1)CN(C1C3CCC1CC(OCc1c(-c4c(Cl)cccc4Cl)noc1C1CC1)C3)C2` (centres unmarked) [Example 2-2], for which the EC50 is less than 25 nM.

Regarding `CC(C)Oc1cc(C(=O)O)cc2sc(NC3C4CCC3CC(OCc3c(-c5ccccc5OC(F)(F)F)noc3C3CC3)C4)nc12` [Example 3, 2-(((1R,3r,5S,8s)-3-((5-cyclopropyl-3-(2-(trifluoromethoxy)phenyl)isoxazol-4-yl)methoxy)bicyclo[3.2.1]octan-8-yl)amino)-4-isopropoxybenzo[d]thiazole-6-carboxylic acid], the EC50 was less than 25 nM.

Turning to `O=C(O)c1cc(F)c2nc(NC3C4CCC3CC(OCc3c(-c5ccccc5OC(F)(F)F)noc3C3CC3)C4)sc2c1` (centres unmarked) [Example 3-2], the EC50 is less than 25 nM.

For `O=C(O)c1ccnc(NC2C3CCC2CC(OCc2c(-c4ccccc4OC(F)(F)F)noc2C2CC2)C3)c1` (centres unmarked) [Example 3-3], the EC50 was 25 to 500 nM.

Molecule `O=C(O)c1cccc2nc(NC3C4CCC3CC(OCc3c(-c5ccccc5OC(F)(F)F)noc3C3CC3)C4)ccc12` (centres unmarked) [Example 3-4] yielded an EC50 of less than 25 nM.

In the case of `O=C(O)c1cnc(NC2C3CCC2CC(OCc2c(-c4ccccc4OC(F)(F)F)noc2C2CC2)C3)c(C(F)(F)F)c1` (centres unmarked) [Example 3-5], the EC50 lay within 25 to 500 nM.

In turn, `O=C(O)c1ccc2nc(NC3C4CCC3CC(OCc3c(-c5ccccc5OC(F)(F)F)noc3C3CC3)C4)ccc2c1` (centres unmarked) [Example 3-6] yielded an EC50 of less than 25 nM.

On to `O=C(O)c1cccc2nc(NC3C4CCC3CC(OCc3c(-c5ccccc5OC(F)(F)F)noc3C3CC3)C4)cnc12` (centres unmarked) [Example 3-7], for which the 50% effective concentration (EC50) was less than 25 nM.

`O=C(O)c1cc2sc(NC3C4CCC3CC(OCc3c(-c5ccccc5OC(F)(F)F)noc3C3CC3)C4)nc2c(F)c1F` (centres unmarked) [Example 3-9]: the EC50 is less than 25 nM.

As to `O=C(O)c1ccc2nc(NC3C4CCC3CC(OCc3c(-c5ccccc5OC(F)(F)F)noc3C3CC3)C4)ncc2c1` (centres unmarked) [Example 3-12], the EC50 is less than 25 nM.

Turning to `O=C(O)c1cccc2nc(NC3C4CCC3CC(OCc3c(-c5ccccc5OC(F)(F)F)noc3C3CC3)C4)ncc12` (centres unmarked) [Example 3-13], the EC50 was less than 25 nM.

With `CC(C)Oc1cc(C(=O)O)cc2sc(N[C@H]3C[C@@H]4C[C@H]3C[C@@H]4OCc3c(-c4c(Cl)cccc4Cl)noc3C3CC3)nc12` [Example 4, 2-(((1S,2S,4S,5S)-5-((5-cyclopropyl-3-(2,6-dichlorophenyl)isoxazol-4-yl)methoxy)bicyclo[2.2.1]heptan-2-yl)amino)-4-isopropoxybenzo[d]thiazole-6-carboxylic acid], the EC50 is less than 25 nM.

`CC(C)Oc1cc(C(=O)O)cc2sc(N[C@H]3C[C@@H]4C[C@H]3C[C@@H]4OCc3c(-c4ccccc4OC(F)(F)F)noc3C3CC3)nc12` [Example 5] yielded an EC50 of 25 to 500 nM.

For `CC(C)Oc1cc(C(=O)O)cc2sc(N[C@@H]3C[C@@H]4C[C@H]3C[C@@H]4OCc3c(-c4ccccc4OC(F)(F)F)noc3C3CC3)nc12` [Example 6], the EC50 was 25 to 500 nM.

For the molecule `CC(C)Oc1cc(C(=O)O)cc2sc(N[C@@H]3C[C@H]4C[C@@H]3[C@@H](OCc3c(-c5c(Cl)cccc5Cl)noc3C3CC3)C4)nc12` [Example 7], the EC50 is less than 25 nM.
